From PubChem BioAssay (NCI)
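Step 1: Grow cells in 96-well plates. Step 2: Expose to compound for 48 hours at 5 concentrations. Step 3: Interpolate endpoints linearly; if unreached, use highest concentration. Definition used: TGI = concentration required for complete inhibition of growth.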

Assays:
Experiment in all cases: NCI anticancer screen, dose series, 48 h
[1] = system: NCI-H460 lung
[2] = system: SF-539 CNS
[3] = system: SW-620 colon
[4] = system: PC-3 prostate
[5] = system: UO-31 renal
[6] = system: HCT-116 colon
[7] = system: 786-0 renal
[8] = system: SF-295 CNS
[9] = system: SR leukemia
[10] = system: COLO 205 colon
[11] = system: IGROV1 ovarian
[12] = system: RPMI-8226 leukemia
[13] = system: RXF 393 renal
[14] = system: MDA-MB-231 breast
[15] = system: HCT-15 colon
[16] = system: NCI/ADR-RES ovarian
[17] = system: UACC-257 melanoma
[18] = system: TK-10 renal
[19] = system: HOP-62 NSCLC
[20] = system: CAKI-1 renal
[21] = system: MDA-N
[22] = system: SK-MEL-2 melanoma
[23] = system: HOP-92 NSCLC
[24] = system: BT-549 breast
[25] = system: SK-OV-3 ovarian
[26] = system: A498 renal
[27] = system: NCI-H522 lung
[28] = system: LOX IMVI melanoma
[29] = system: SNB-19 CNS
[30] = system: DU-145 prostate
[31] = system: OVCAR-4 ovarian
[32] = system: MOLT-4 leukemia
[33] = system: OVCAR-8 ovarian
[34] = system: MDA-MB-435
[35] = system: MALME-3M melanoma
[36] = system: M14 melanoma
[37] = system: UACC-62 melanoma
[38] = system: HT29 colon
[39] = system: T-47D breast
[40] = system: SK-MEL-5 melanoma
[41] = system: SK-MEL-28 melanoma
[42] = system: A549 NSCLC
[43] = system: HS 578T breast
[44] = system: OVCAR-3 ovarian
[45] = system: U251 CNS
[46] = system: ACHN renal
[47] = system: MCF7 breast
[48] = system: EKVX NSCLC
[49] = system: OVCAR-5 ovarian
[50] = system: CCRF-CEM leukemia
[51] = system: NCI-H23 lung
[52] = system: SF-268 CNS
[53] = system: SNB-75 CNS
[54] = system: K-562 leukemia
[55] = system: SN12C renal
[56] = system: KM12 colon
[57] = system: HCC-2998 colon
[58] = system: NCI-H226 lung

Measured: TGI

c1ccc(B2OCC(C3OB(c4ccccc4)OC4COB(c5ccccc5)OC43)O2)cc1 (centres undefined)
not listed: [57] | [58]
> 100 µM: all other assays above

CC(=O)OCCCCn1cc(Cn2ccc(=O)n(Cc3cn(CCCCOC(C)=O)nn3)c2=O)nn1
not listed: [1] | [9] | [27] | [38] | [54]
> 100 µM: all other assays above
